{"source": "patent US10556860B2", "about": "“hTERT modulators and methods of use” (Arizona Board of Regents on Behalf of the University of …, priority 2015, dated 2020)", "key": {"caspase-3": {"system": "caspase-3", "assay": "Caspase assay in MCF7 cells", "type": "cell-based, human", "settings": "0.5-1 μM, 48 h, relative to DMSO", "protocol": "Caspase assay. MCF7 cells in a 6-well plate were treated with GTC365 for 48 h. The caspase-3 assay was conducted using an Apoalert Caspase 3 Fluorescent Assay Kit (Clontech) with DEVD-AFC as a substrate of capase-3 following the manufacturer's instruction. Fluorescence intensity of released AFC was measured using a BioTek Synergy HT with excitation at 400 nm and emission at 505 nm. The relative caspase-3 activity compared to the DMSO was obtained.\nIndeed at 0.5-1 μM, the BAX/BCL2 ratio was increased by over 2-fold and the capase-3 activity was increased by 47% (FIGS. 11 and 12)."}, "MCF7 cells [1]": {"system": "MCF7 cells", "assay": "Cell cycle analysis by PI staining", "type": "cell-based, human", "settings": "48 h treatment", "protocol": "Cell cycle analysis by PI staining. MCF7 cells were treated with GTC365 for 48 h. Cells were trypsinized and washed with cold D-PBS. Cell pellets were subjected to 70% EtOH fixation at −20° C. overnight. Cells were incubated with RNase A and PI for 3 h at 37° C. and then kept in ice before FACS analysis (FACScanto II, BD Biosciences, San Jose, Calif.).\n(§1) Since knockdown of hTERT arrests the cell cycle in the G0/G1 phase, the effects of GTC365 on the cell cycle were evaluated. GTC365 increased the population of the G0/G1 (from 57% to 71%) and G2/M phases (from 10% to 19%), whereas the S-phase was decreased (from 33% to 10%) in a dose-dependent manner with 48 h treatment. […] It is known that various anticancer drugs induce SLP in different cancer cells, leading to mitotic catastrophe as well as apoptotic cell death. Doxorubicin, one of the representative anticancer drugs, induced apoptosis and mitotic catastrophe accompanied by multiple nuclei with SLP. GTC365, like doxorubicin, appears to arrest cell proliferation and induce cell death, apoptosis, or mitotic catastrophe through downregulation of hTERT."}, "[2]": {"system": "G138/139A 5-12 G-quadruplex", "assay": "CD kinetics, temperature-jump, G138/139A", "type": "biochemical, human", "settings": "2 equiv", "protocol": "(§2) FIGS. 10A and 10B are a set of graphs showing (A) comparison of kinetics of initial folding rate of the WT 5-12 G-quadruplex with GTC365 and BRACO-19 by the temperature-jump method. (B) Enhanced initial folding rate of the 5-12 G-quadruplexes carrying different hTERT mutants by GTC365. The time-course CD signal of preheated oligo with compound or DMSO in a buffer containing 10 mM Tris-HCl (pH 7.5) and 5 mM KCl was monitored at 262 nm and 25° C.\n(§3) For the kinetics analysis using the temperature-jump method, theoligo in a buffer containing 10 mM Tris-HCl (pH 7.5) was heated forl min at 95° C., and then a mixture of KCl and compound was addedand incubated for 1 min. Meanwhile, the CD cuvette was also heatedat 95° C. As soon as the sample in the CD cuvette at the hightemperature was placed in the CD chamber, a time-dependent CDsignal at 262 nm was recorded immediately. The initial folding ratewas determined by one-phase association curve fitting (eq 1) of thekinetics curve using GraphPad Prism 5: Y=Y0+(Plateau−Y0)*(1−e^−kx) (1) where Y is the CD signal at any time point x, Y0 is the Y value whentime (x) is zero, plateau is the Y value at infinite time, and k is the rateconstant.\n(§4) To evaluate the comparative effects of GTC365 relative to BRACO-19 on the cooperative folding process, we carried out two different experiments. […]"}, "G146A 5-12 G-quadruplex": {"system": "G146A 5-12 G-quadruplex", "assay": "CD kinetics, temperature-jump, G146A", "type": "biochemical, human", "settings": "2 equiv", "protocol": "as §2, §3, §4"}, "MCF7 cells [3]": {"system": "MCF7 cells", "assay": "Counting of live cells treated with GTC365", "type": "cell-based, human", "settings": "low dose, nine days", "protocol": "Counting of live cells treated with GTC365. MCF7 cells were treated with DMSO or 0.5 μM of GTC365. Cells were trypsinized and then subjected to trypan blue exclusion staining for counting of live cells using microscopy every three days. Afterward, 70% of cells were recultured with fresh media and DMSO or GTC365. Relative cell numbers compared to the DMSO were obtained.\nas §1"}}}
{"compound": "N=C(N)NCCCS(=O)(=O)Nc1ccc(Nc2c3ccccc3nc3cc([N+](=O)[O-])ccc23)cc1", "note": "[GTC365]", "values": [{"measurement": "increase of caspase-3 activity", "setting": "caspase-3", "value": 47, "unit": "%"}, {"measurement": "population in G2/M phase", "setting": "MCF7 cells [1]; from 10% without compound", "value": 19, "unit": "%"}, {"measurement": "population in S-phase", "setting": "MCF7 cells [1]; from 33% without compound", "value": 10, "unit": "%"}, {"measurement": "population in G0/G1 phase", "setting": "MCF7 cells [1]; from 57% without compound", "value": 71, "unit": "%"}, {"measurement": "effect on initial folding rate", "setting": "[2]", "value": "insignificant"}, {"measurement": "increase of initial folding rate", "setting": "G146A 5-12 G-quadruplex", "value": 0.054, "unit": "s⁻¹"}, {"measurement": "cell death of cells showing SLP", "setting": "MCF7 cells [3]", "value": "underwent cell death"}]}
